We go through 12 compounds from patent US6214844A, “Substituted imidazole compounds” (SmithKline Beecham Corporation, priority 1999, dated 2001).

The target in one assay is T1, CSBP2 (Homo sapiens, UniProt Q16539).
T1 construct: made in house
Description: CSBP kinase assay (32P transfer to EGFR-derived peptide T669). In kind it is biochemical. The method, then: Compounds (5 ul from [6X] stock^(2)) are pre-incubated with the enzyme and peptide for 20 min on ice prior to starting the reactions with 32P/MgATP. Reactions are incubated at 30° C. for 10 min and stopped by adding 10 ul of 0.3 M phosphoric acid. 32P-labeled peptide is separated on phosphocellulose (Wattman, p81) filters by spotting 30 ul reaction mixture. Filters are washed 3 times with […] phosphoric acid followed by 2 washes with H2 O, and counted for 32P.
^(2) Compounds are usually dissolved in DMSO and are diluted in 25 mM Hepes buffer to get final concentration of DMSO of 0.17%.

For another assay, the system named is human PGHS-2. Description: Prostoglandin endoperoxide synthase-2 (PGHS-2) assay: PGHS-2 protein expression in LPS stimulated human monocytes. In kind it is cell-based. How it is done:
Prostoglandin endoperoxide synthase-2 (PGHS-2) assay:
The following assay describes a method for determining the inhibitory effects of compounds of Formula (I) on human PGHS-2 protein expression in LPS stimulated human monocytes.
Method: Human peripheal blood monocytes were isolated from buffy coats by centrifugation through Ficoll and Percoll gradients. Cells were seeded at 2×10^6 /well in 24 well plates and allowed to adhere for 1 hour in RPMI supplemented with 1% human AB serum, 20 mM L-glutamine, Penicillin-Streptomycin and 10 mM HEPES. Compounds were added at various concentrations and incubated at 37° C. for 10 minutes. LPS was added at 50 ng/well (to induce enzyme expression) and incubated overnight at 37° C. The supernatant was removed and cells washed once in cold PBS. The cells were lysed in 100 μl of cold lysis buffer(50 mM Tris/HCl pH 7.5, 150 mM NaCl, 1% NP40, 0.5% sodium deoxycholate, 0.1% SDS, 300 ug/ml DNAse, 0.1% TRITON X-100, 1 mM PMSF, 1 mM leupeptin, 1 mM pepstatin). The lysate was centrifuged (10,000×g for 10 min. at 4° C.) to remove debris and the soluble fraction was subjected to SDS PAGE. analysis (12% gel). Protein separated on the gel were transferred onto nitrocellulose membrane by electrophoretic means for 2 hours at 60 volts. The membrane was pretreated for one hour in PBS/0.1% Tween 20 with 5% non-fat dry milk. After washing 3 times in PBS/Tween buffer, the membrane was incubated with a 1:2000 dilution of a monospecific antiserum to PGHS-2 or a 1:1000 dilution of an antiserum to PGHs-1 in PBS/Tween with 1% BSA for one hour with continuous shaking. The membrane was washed 3× in PBS/Tween and then incubated with a 1:3000 dilution of horseradish peroxidase conjugated donkey antiserum to rabbit Ig (Amershamn) in PBS/Tween with 1% BSA for one hour with continuous shaking. The membrane was then washed 3× in PBS/Tween and the ECL immunodetection system (Amersham) was used to detect the level of expression of prostaglandin endoperoxide synthases-2.

Assay [1] concerns the target T2, cytokine specific binding protein (CSBP) (Homo sapiens, UniProt Q16539).
T2 construct: soluble cystosolic fraction from THP.1 cells; endogenous in cells; host or cells: THP.1 cells, soluble cytosolic fraction
Description: Cytokine Specific Binding Protein Assay (radiocompetitive binding, cytosolic fraction of THP.1 cells). Particulars: THP.1 cytosolic fraction, radiolabeled compound.

A further assay deals with IL-1. Description: Interleukin-1 (IL-1) production by LPS-stimulated human peripheral blood monocytes. In kind it is cell-based. Particulars: LPS 50 ng/ml. The method, then:
Human peripheral blood monocytes are isolated and purified from either fresh blood preparations from volunteer donors, or from blood bank buffy coats, according to the procedure of Colotta et al, J Immunol, 132, 936 (1984). These monocytes (1×10^6) are plated in 24-well plates at a concentration of 1-2 million/ml per well. The cells are allowed to adhere for 2 hours, after which time non-adherent cells are removed by gentle washing. Test compounds are then added to the cells for 1 h before the addition of lipopolysaccharide (50 ng/ml), and the cultures are incubated at 37° C. for an additional 24 h. At the end of this period, culture supernatants are removed and clarified of cells and all debris. Culture supernatants are then immediately assayed for IL-1 biological activity, either by the method of Simon et al., J. Immunol. Methods, 84, 85, (1985) (based on ability of IL-1 to stimulate a Interleukin 2 producing cell line (EL-4) to secrete IL-2, in concert with A23187 ionophore) or the method of Lee et al., J. Immuno Therapy, 6 (1), 1-12 (1990) (ELISA assay).

Setting [2] is: active, rank order potency similar to that for inhibiting cytokine production.

T1 sequence (Q16539 whole entry): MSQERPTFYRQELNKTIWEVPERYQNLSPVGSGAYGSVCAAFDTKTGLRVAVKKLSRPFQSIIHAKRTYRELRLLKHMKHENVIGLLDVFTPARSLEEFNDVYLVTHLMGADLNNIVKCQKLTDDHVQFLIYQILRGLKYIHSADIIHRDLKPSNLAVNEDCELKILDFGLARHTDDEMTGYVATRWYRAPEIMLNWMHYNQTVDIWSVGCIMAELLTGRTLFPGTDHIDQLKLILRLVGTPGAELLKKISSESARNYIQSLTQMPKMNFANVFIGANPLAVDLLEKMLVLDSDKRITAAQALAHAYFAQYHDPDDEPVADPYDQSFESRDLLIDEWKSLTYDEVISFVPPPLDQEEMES
T2 sequence (Q16539 whole entry): as above

Consider `CCOC(=O)N1CCC(n2cnc(-c3ccc(SC)cc3)c2-c2ccnc(SC)n2)CC1` [Example 9, 1-(1-Ethylcarboxylpiperidin-4-yl)-3-(4-thiomethylphenyl)-5-[2-(thiomethyl)pyrimidin-4-yl]-imidazole], for which the half-maximal inhibitory concentration (IC50) – broadly, the point on the concentration scale where inhibition reaches its midpoint – on CSBP2 was > 50 µM. Regarding `Fc1ccc(-c2nc3n(c2-c2ccncc2)CCS3)cc1` [6-(4-Fluorophenyl)-2,3-dihydro-5-(4-pyridinyl)imidazo[2,1-b]thiazole], the “inhibition of LPS induced PGHS-2 protein expression” value with human PGHS-2 (setting [2]) is on record as “active”. Still for that read-out and setting: the result for `C[S+]([O-])c1ccc(-c2nc(-c3ccc(F)cc3)c(-c3ccncc3)[nH]2)cc1` (stereo not drawn) [4-(4-Fluorophenyl)-2-(4-methylsulfinylphenyl)-5-(4-pyridyl)imidazole] reads “active”; that for `C[C@@H]1C[C@H]2[C@@H]3CCC4=CC(=O)C=C[C@]4(C)[C@@]3(F)[C@@H](O)C[C@]2(C)[C@@]1(O)C(=O)CO` [Dexamethasone], “active”.

In the case of `CCOC(=O)N1CCC(n2cnc(-c3ccc([S+](C)[O-])cc3)c2-c2ccnc([S+](C)[O-])n2)CC1` (stereo not drawn) [Example 10], the concentration for half-maximal inhibition (IC50) on CSBP2 is > 50 µM.

With `C[S+]([O-])c1ccc(-c2nc3n(c2-c2ccncc2)CCC3)cc1` (stereo not drawn) [2-(4-Methylsulfinylphenyl)-3-(4-pyridyl)-6,7-dihydro-(5H)-pyrrolo[1,2-a]imidazole], in the assay on human PGHS-2 (inactive, up to 10 μM), the “inhibition of LPS induced PGHS-2 protein expression” value was “inactive”. On to `CC(C)Oc1cc(-c2c(-c3ccc(F)cc3)ncn2C2CCNCC2)ccn1` [Example 5, 5-(2-iso-Propoxy4-pyridinyl)-4-(4-fluorophenyl)-1-(4-piperidinyl)imidazole], for which the IC50 against CSBP2 was > 50 µM. Take `COc1ccc(C2CNC(=O)C2)cc1OC1CCCC1` (stereo not drawn) [rolipramr]: in the assay on human PGHS-2 (inactive, up to 10 μM), the “inhibition of LPS induced PGHS-2 protein expression” value is “inactive”.

`O=C1CCN(c2ccccc2)N1` [phenidone]: in the assay on human PGHS-2 (inactive, up to 10 μM), the “inhibition of LPS induced PGHS-2 protein expression” value was “inactive”. Take `CSc1nccc(-c2c(-c3ccc(F)cc3)ncn2C2CCNCC2)n1` [Example 6, 5-(2-Methylthio-4-pyrimidinyl)4-(4-fluorophenyl)-1-(4-piperidinyl)imidazole]: the IC50 in assay [1] is < 50 µM. Turning to `CC(Cc1ccc(O)c(O)c1)C(C)Cc1ccc(O)c(O)c1` (stereo not drawn) [NDGA], the “inhibition of LPS induced PGHS-2 protein expression” value with human PGHS-2 (inactive, up to 10 μM) was “inactive”. Take `COc1nccc(-c2c(-c3ccc(F)cc3)ncn2C2CCNCC2)n1` [Example 1, 5-(2-Methoxy-4-pyrimidinyl)-4-(4-fluorophenyl)-1-(4-piperidinyl)imidazole]: the “inhibition of IL-1 production” value in the assay with IL-1 is recorded as “positive inhibition”.
